Key:
[1] = system: Staphylococcus aureus MSSA; assay: in vitro bacteriostatic activity, agar dilution MIC; assay type: cell-based
[2] = system: Staphylococcus epidermidis MSSE; assay: as above; assay type: cell-based; details: Staphylococcus epidermidis
[3] = system: Enterococcus faecalis; assay: as above; assay type: cell-based; details: Enterococcus faecalis
[4] = system: Enterococcus faecium; assay: as above; assay type: cell-based; details: Enterococcus faecium
[5] = system: Staphylococcus aureus MRSA; assay: as above; assay type: cell-based
[6] = system: Staphylococcus epidermidis MRSE; assay: as above; assay type: cell-based
[7] = system: Staphylococcus epidermidis ATCC 12228; assay: in vitro bacteriostatic activity, agar dilution MIC, quality control strain; assay type: cell-based; details: Staphylococcus epidermidis, ATCC12228
[8] = system: Staphylococcus aureus; assay: in vitro bacteriostatic activity, agar dilution MIC, quality control strains; assay type: cell-based; details: Staphylococcus aureus, ATCC29213
[9] = system: Methicillin-resistant Staphylococcus aureus ATCC 43300; assay: in vivo protection of model mice infected with methicillin-resistant Staphylococcus aureus; parameters: species or system KM mice; details: 4×10^5 units/kg, intraperitoneal injection once a day, within 14 days
Method: Tested strains' virulence assay: Methicillin-resistant Staphylococcus aureus was cultured in incubator at 37°C to reach exponential phase of growth, and then diluted with normal saline to obtain different gradient concentrations of bacterial liquid. Different concentrations of bacterial liquid were taken and mixed with equivalent 10% gastric mucin. Bacterial liquid was administrated to mice at 0.5 ml/20 g by intraperitoneal injection, and 5% gastric mucin was used as control. Under a premise of no control mice death, the death rate of mice within 14 days was recorded, and the minimum bacterial volumes leading to death of whole mice were measured, i.e. the minimum lethal dose (MLD) of bacterial liquid.
Pretesting of effective dose in vivo: Infection model mice infected by Methicillin-resistant Staphylococcus aureus were randomly divided into a few of groups (four mice per group), and a graded dose of each bacterial liquid was separately administrated to mice in each test group at one time per day. Moreover, administration of test drug was done one day ahead of schedule, and toxic substances were not eliminated until 0.5 h after administration on the second day. The death status of mice within 14 days was observed, to determine the dosage used in the formal experiment.
KM mice (grade SPF), half male and half female, weighing 18-22 g were randomly divided into […] groups with ten mice for each group, i.e. the group receiving vancomycin hydrochloride for injection; the groups receiving high, medium, and low doses of patchoulol; blank group; model group; and control group receiving gastric mucin. All of the mice were administrated by intraperitoneal injection once a day. The mice were administrated one day in advance and then attacked after 0.5h of administration on the second day, i.e. intraperitoneally injected with methicillin-resistant Staphylococcus aureus liquid containing 5% gastric mucin. Amongst, mice in the model group were given normal saline instead of test drug; mice in the blank group were not given drugs and attacked; mice in the gastric mucin control group were not given test drug, but only injected with 5% gastric mucin without bacteria.
The death status of mice within 14 days after injection of bacteria was observed, and its survival rate was recorded.

CN[C@H](CC(C)C)C(=O)N[C@H]1C(=O)N[C@@H](CC(N)=O)C(=O)N[C@H]2C(=O)N[C@H]3C(=O)N[C@H](C(=O)N[C@H](C(=O)O)c4cc(O)cc(O)c4-c4cc3ccc4O)[C@H](O)c3ccc(c(Cl)c3)Oc3cc2cc(c3O[C@@H]2O[C@H](CO)[C@@H](O)[C@H](O)[C@H]2O[C@H]2C[C@](C)(N)[C@H](O)[C@H](C)O2)Oc2ccc(cc2Cl)[C@H]1O [vancomycin]
10: Survival number ([9]; 10 animals)
0.25 µg/mL: MIC ([2]; Staphylococcus epidermidis MSSE 12-18)
0.5 µg/mL: MIC ([2]; Staphylococcus epidermidis MSSE 12-16) | MIC ([2]; Staphylococcus epidermidis MSSE 12-17) | MIC ([4]; Enterococcus faecium 12-7) | MIC ([4]; Enterococcus faecium 12-8) | MIC ([4]; Enterococcus faecium 12-11) | MIC ([4]; Enterococcus faecium 12-14) | MIC ([6]; Staphylococcus epidermidis MRSE 12-12) | MIC [8]
2 µg/mL: MIC ([2]; Staphylococcus epidermidis MSSE 12-12) | MIC ([2]; Staphylococcus epidermidis MSSE 12-14) | MIC ([2]; Staphylococcus epidermidis MSSE 12-15) | MIC ([3]; ATCC29212, Enterococcus faecalis ATCC 29212) | MIC ([3]; ATCC51299, Enterococcus faecalis (high endurance) ATCC 51299) | MIC ([3]; Enterococcus faecalis 12-13) | MIC ([3]; Enterococcus faecalis 12-17) | MIC ([3]; Enterococcus faecalis 12-19) | MIC ([3]; Enterococcus faecalis 12-20) | MIC ([5]; MRSA, Staphylococcus aureus MRSA 12-11) | MIC ([5]; MRSA, Staphylococcus aureus MRSA 12-16) | MIC ([5]; MRSA, Staphylococcus aureus MRSA 12-19) | MIC ([6]; Staphylococcus epidermidis MRSE 12-15) | MIC ([6]; Staphylococcus epidermidis MRSE 12-16) | MIC ([6]; Staphylococcus epidermidis MRSE 12-17) | MIC ([6]; Staphylococcus epidermidis MRSE 12-18) | MIC ([6]; Staphylococcus epidermidis MRSE 12-19) | MIC ([6]; Staphylococcus epidermidis MRSE 12-20) | MIC ([6]; Staphylococcus epidermidis MRSE 12-21)
100%: Survial rate (%) [9]
1 µg/mL: MIC ([1]; Staphylococcus aureus MSSA 12-11) | MIC ([1]; Staphylococcus aureus MSSA 12-13) | MIC ([1]; Staphylococcus aureus MSSA 12-14) | MIC ([1]; Staphylococcus aureus MSSA 12-15) | MIC ([1]; Staphylococcus aureus MSSA 12-16) | MIC ([1]; Staphylococcus aureus MSSA 12-17) | MIC ([1]; Staphylococcus aureus MSSA 12-18) | MIC ([1]; Staphylococcus aureus MSSA 12-19) | MIC ([1]; Staphylococcus aureus MSSA 12-21) | MIC ([1]; Staphylococcus aureus, MSSA) | MIC ([2]; Staphylococcus epidermidis MSSE 12-11) | MIC ([2]; Staphylococcus epidermidis MSSE 12-13) | MIC ([2]; Staphylococcus epidermidis MSSE 12-19) | MIC ([2]; Staphylococcus epidermidis MSSE 12-20) | MIC ([3]; Enterococcus faecalis 12-12) | MIC ([3]; Enterococcus faecalis 12-14) | MIC ([3]; Enterococcus faecalis 12-18) | MIC ([3]; Enterococcus faecalis 12-21) | MIC ([3]; Enterococcus faecalis 12-22) | MIC ([4]; ATCC33186, Enterococcus faecium ATCC 33186) | MIC ([4]; Enterococcus faecium 12-9) | MIC ([4]; Enterococcus faecium 12-12) | MIC ([4]; Enterococcus faecium 12-15) | MIC ([4]; Enterococcus faecium 12-16) | MIC ([5]; ATCC 43300 / MRSA, Methicillin-resistant Staphylococcus aureus ATCC 43300) | MIC ([5]; MRSA, Staphylococcus aureus MRSA 12-12) | MIC ([5]; MRSA, Staphylococcus aureus MRSA 12-13) | MIC ([5]; MRSA, Staphylococcus aureus MRSA 12-14) | MIC ([5]; MRSA, Staphylococcus aureus MRSA 12-15) | MIC ([5]; MRSA, Staphylococcus aureus MRSA 12-17) | MIC ([5]; MRSA, Staphylococcus aureus MRSA 12-18) | MIC ([5]; MRSA, Staphylococcus aureus MRSA 12-20) | MIC ([6]; Staphylococcus epidermidis MRSE 12-22) | MIC [7]
8 µg/mL: MIC ([6]; Staphylococcus epidermidis MRSE 12-11)
> 128 µg/mL: MIC ([3]; Enterococcus faecalis 12-11)
4 µg/mL: MIC ([4]; Enterococcus faecium 12-10) | MIC ([4]; Enterococcus faecium 12-13)
